From ChEMBL document CHEMBL1151333, “A new indole derivative from the red alga Chondria atropurpurea. Isolation, structure determination, and anthelmintic activity” (J Nat Prod, 1998)

Tested on: Nippostrongylus brasiliensis
Assay: Anthelmintic activity against Nippostrongylus brasiliensis L4 parasitant on day 5 by double serial dilution model
Assay type: functional, organism-based
Conditions: 120 h

EC50 [µM] | SMILES
90 | O=C(/C=C/c1c[nH]c2ccccc12)N/C=C\c1c[nH]c2ccccc12 [CHONDRIAMIDE C]
260 | O=C(/C=C/c1c[nH]c2ccccc12)N/C=C/c1c[nH]c2ccccc12 [CHONDRIAMIDE A]
300 | COc1cccc2c(/C=C/C(=O)N/C=C/c3cn(C)c4ccccc34)cn(C)c12
2370 | NC(=O)/C=C/c1c[nH]c2ccccc12
